The NIST ThermoML archive (doi:10.1016/j.fluid.2010.10.028)

Experiment: xn = mol fraction of the nth substance listed
Conditions: Liquid, Vibrating tube method

CC(C)=O [acetone] + CCCCCCC
Conditions | mass density [kg/m3]
337.69 K, 970 kPa, x1 = 0.801 | 700.39
337.69 K, 4850 kPa, x1 = 0.801 | 706.05
337.69 K, 9830 kPa, x1 = 0.7024 | 699.81
337.69 K, 9840 kPa, x1 = 0.492 | 680.33
337.69 K, 9870 kPa, x1 = 0.801 | 712.82
337.69 K, 14820 kPa, x1 = 0.7024 | 705.98
337.69 K, 14860 kPa, x1 = 0.801 | 719.01
337.69 K, 14870 kPa, x1 = 0.492 | 686.47
337.69 K, 19850 kPa, x1 = 0.801 | 724.74
337.69 K, 19870 kPa, x1 = 0.492 | 692.06
337.69 K, 24790 kPa, x1 = 0.7024 | 717.01
337.69 K, 24840 kPa, x1 = 0.492 | 697.27
337.69 K, 24840 kPa, x1 = 0.801 | 730.15
337.69 K, 29870 kPa, x1 = 0.492 | 702.18
337.69 K, 39870 kPa, x1 = 0.7024 | 731.35
337.69 K, 49840 kPa, x1 = 0.801 | 752.9
337.69 K, 64830 kPa, x1 = 0.801 | 764.19
337.69 K, 84730 kPa, x1 = 0.7024 | 763.81
337.69 K, 89820 kPa, x1 = 0.7024 | 766.84
337.69 K, 94820 kPa, x1 = 0.7024 | 769.76
337.69 K, 99820 kPa, x1 = 0.7024 | 772.57
337.69 K, 104830 kPa, x1 = 0.7024 | 775.31
337.69 K, 109800 kPa, x1 = 0.7024 | 777.96
337.69 K, 114820 kPa, x1 = 0.7024 | 780.54
337.69 K, 119800 kPa, x1 = 0.7024 | 783.06
337.69 K, 124820 kPa, x1 = 0.7024 | 785.53
337.69 K, 129820 kPa, x1 = 0.7024 | 787.95
337.7 K, 930 kPa, x1 = 0.7024 | 687.32
337.7 K, 960 kPa, x1 = 0.492 | 668.07
337.7 K, 4830 kPa, x1 = 0.7024 | 693.05
337.7 K, 4860 kPa, x1 = 0.611 | 683.33
337.7 K, 4870 kPa, x1 = 0.492 | 673.74
337.7 K, 9860 kPa, x1 = 0.611 | 690.06
337.7 K, 14890 kPa, x1 = 0.611 | 696.23
337.7 K, 19800 kPa, x1 = 0.7024 | 711.67
337.7 K, 19850 kPa, x1 = 0.611 | 701.87
337.7 K, 24870 kPa, x1 = 0.611 | 707.18
337.7 K, 29860 kPa, x1 = 0.611 | 712.16
337.7 K, 29890 kPa, x1 = 0.7024 | 722.13
337.7 K, 34850 kPa, x1 = 0.492 | 706.79
337.7 K, 34850 kPa, x1 = 0.611 | 716.83
337.7 K, 34850 kPa, x1 = 0.801 | 739.96
337.7 K, 34880 kPa, x1 = 0.7024 | 726.85
337.7 K, 39850 kPa, x1 = 0.492 | 711.17
337.7 K, 39860 kPa, x1 = 0.611 | 721.28
337.7 K, 39860 kPa, x1 = 0.801 | 744.5
337.7 K, 44850 kPa, x1 = 0.7024 | 735.58
337.7 K, 44850 kPa, x1 = 0.801 | 748.79
337.7 K, 44860 kPa, x1 = 0.611 | 725.53
337.7 K, 49840 kPa, x1 = 0.7024 | 739.64
337.7 K, 49850 kPa, x1 = 0.611 | 729.53
337.7 K, 49860 kPa, x1 = 0.492 | 719.29
337.7 K, 54830 kPa, x1 = 0.611 | 733.35
337.7 K, 54830 kPa, x1 = 0.7024 | 743.51
337.7 K, 54850 kPa, x1 = 0.492 | 723.05
337.7 K, 54850 kPa, x1 = 0.801 | 756.81
337.7 K, 59810 kPa, x1 = 0.7024 | 747.21
337.7 K, 59840 kPa, x1 = 0.801 | 760.56
337.7 K, 59850 kPa, x1 = 0.492 | 726.67
337.7 K, 59940 kPa, x1 = 0.611 | 737.16
337.7 K, 64800 kPa, x1 = 0.7024 | 750.79
337.7 K, 64840 kPa, x1 = 0.492 | 730.12
337.7 K, 64920 kPa, x1 = 0.611 | 740.68
337.7 K, 69780 kPa, x1 = 0.7024 | 754.21
337.7 K, 69840 kPa, x1 = 0.4 | 783.77
337.7 K, 69840 kPa, x1 = 0.8992 | 783.77
337.7 K, 69910 kPa, x1 = 0.611 | 744.03
337.7 K, 69930 kPa, x1 = 0.801 | 767.73
337.7 K, 74900 kPa, x1 = 0.611 | 747.3
337.7 K, 74910 kPa, x1 = 0.801 | 771.08
337.7 K, 79880 kPa, x1 = 0.611 | 750.44
337.7 K, 79880 kPa, x1 = 0.801 | 774.31
337.7 K, 84860 kPa, x1 = 0.611 | 753.48
337.7 K, 84870 kPa, x1 = 0.801 | 777.45
337.7 K, 89840 kPa, x1 = 0.611 | 756.41
337.7 K, 99810 kPa, x1 = 0.801 | 786.3
337.7 K, 109780 kPa, x1 = 0.801 | 791.8
337.7 K, 114850 kPa, x1 = 0.801 | 794.44
337.7 K, 119850 kPa, x1 = 0.611 | 772.4
337.7 K, 119860 kPa, x1 = 0.801 | 797.03
337.71 K, 950 kPa, x1 = 0.611 | 677.6
337.71 K, 1150 kPa, x1 = 0.4 | 716.73
337.71 K, 1150 kPa, x1 = 0.8992 | 716.73
337.71 K, 5000 kPa, x1 = 0.4 | 722.27
337.71 K, 5000 kPa, x1 = 0.8992 | 722.27
337.71 K, 9990 kPa, x1 = 0.4 | 728.91
337.71 K, 9990 kPa, x1 = 0.8992 | 728.91
337.71 K, 14960 kPa, x1 = 0.4 | 735.03
337.71 K, 14960 kPa, x1 = 0.8992 | 735.03
337.71 K, 19960 kPa, x1 = 0.4 | 740.75
337.71 K, 19960 kPa, x1 = 0.8992 | 740.75
